Data as given in ChEMBL document CHEMBL1122740, “Bicyclic lactam inhibitors of angiotensin converting enzyme” (J Med Chem, 1984).
“And” between values parts separate entries of the source, which are not always exact repeats. Equal values may be shown once.

molecular target: T1, Angiotensin-converting enzyme (Oryctolagus cuniculus, UniProt P12822); test: Ability to inhibit Angiotensin I converting enzyme was determined
T1 sequence (P12822 whole entry): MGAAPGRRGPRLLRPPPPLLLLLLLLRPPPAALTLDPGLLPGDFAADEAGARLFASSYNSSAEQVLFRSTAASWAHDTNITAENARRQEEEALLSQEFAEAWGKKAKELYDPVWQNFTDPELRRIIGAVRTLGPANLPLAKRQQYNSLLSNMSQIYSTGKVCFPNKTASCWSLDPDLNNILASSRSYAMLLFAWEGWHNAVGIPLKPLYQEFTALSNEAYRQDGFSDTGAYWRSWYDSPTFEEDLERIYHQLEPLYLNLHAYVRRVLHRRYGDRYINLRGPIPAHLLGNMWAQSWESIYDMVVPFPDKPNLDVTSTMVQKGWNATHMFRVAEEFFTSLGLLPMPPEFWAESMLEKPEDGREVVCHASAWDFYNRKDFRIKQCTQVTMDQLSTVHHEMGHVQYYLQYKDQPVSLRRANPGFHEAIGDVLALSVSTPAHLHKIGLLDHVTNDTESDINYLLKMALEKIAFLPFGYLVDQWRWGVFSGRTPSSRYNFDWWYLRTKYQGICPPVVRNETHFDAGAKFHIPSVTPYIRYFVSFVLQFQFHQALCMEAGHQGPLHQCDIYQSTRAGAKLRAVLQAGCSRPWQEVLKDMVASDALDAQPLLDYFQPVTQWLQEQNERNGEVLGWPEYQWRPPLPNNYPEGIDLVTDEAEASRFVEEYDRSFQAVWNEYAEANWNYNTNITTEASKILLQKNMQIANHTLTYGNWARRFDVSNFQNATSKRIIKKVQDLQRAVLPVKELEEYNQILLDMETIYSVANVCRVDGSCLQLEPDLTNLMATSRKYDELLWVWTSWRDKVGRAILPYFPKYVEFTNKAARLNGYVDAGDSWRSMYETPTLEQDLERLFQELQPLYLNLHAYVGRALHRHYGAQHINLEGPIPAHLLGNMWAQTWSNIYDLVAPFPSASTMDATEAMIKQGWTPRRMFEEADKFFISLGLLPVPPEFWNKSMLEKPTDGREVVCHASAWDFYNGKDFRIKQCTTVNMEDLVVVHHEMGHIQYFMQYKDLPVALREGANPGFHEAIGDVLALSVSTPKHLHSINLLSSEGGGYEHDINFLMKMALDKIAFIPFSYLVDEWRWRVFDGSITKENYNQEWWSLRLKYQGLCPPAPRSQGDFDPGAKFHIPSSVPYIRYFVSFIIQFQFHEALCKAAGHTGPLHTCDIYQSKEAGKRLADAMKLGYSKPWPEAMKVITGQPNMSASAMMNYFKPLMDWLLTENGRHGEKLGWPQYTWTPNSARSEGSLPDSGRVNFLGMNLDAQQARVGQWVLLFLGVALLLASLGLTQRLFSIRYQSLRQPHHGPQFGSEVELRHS

Structure (SMILES) | IC50
O=C(O)CN1CCCC(CS)C1=O (stereo not given) | 1500 nM and 3400 nM
O=C(O)CN1CCCCC(CS)C1=O (stereo not given) | 170 nM
CC(C(=O)O)N1CCCCCC(CS)C1=O (stereo not given) | 53 nM

Further compounds by falling IC50, results first:

IC50 | Structure (SMILES)
9 nM | O=C(O)CN1C(=O)C(CS)CCc2ccccc21 (stereo not given)
4 nM | O=C(O)CN1C(=O)C(CS)CCCc2ccccc21 (stereo not given)
